Molecules are shown by their SMILES. Converted amounts (≈) assume the structure as drawn.

Assay [1] addresses T1, angiotensin-converting enzyme (ACE) (Homo sapiens, UniProt P12821). The experiment in a line: In-vitro ACE inhibitor activity assay (HHL substrate, hippuric acid read at 228 nm). The format is biochemical. The following applies: for inhibition at 1.25 µg/mL: ACE inhibition at a concentration of 1.25 μg/ml, read-out: inhibitory activity ± SD (%); for IC50: ACE inhibition, purified compounds and captopril, read-out: IC50 ± SD (μg/mL) (converted). As to the method:
This assay was conducted on extract, fraction and three purified compounds using captopril as a positive control at the concentration of 0,01, 0,05, 0,5, 1,25 dan 6,25 mM. In a test tube, 50 μL of the solution assay was added with 50 μL of 8 mM hippuryl-histidyl-leucine (HHL) substrate solution and pre-incubated at 37 °C for 10 minutes, followed by the addition of 100 μL of the ACE, homogenization by vortex mixer, and incubation for 90 minutes at 37 °C. Further, 250 μL of 1 N HCl was added to the mixture to stop the enzymatic reaction. The hippuric acid was produced, while the enzymatic reaction was extracted by 1.5 mL ethyl acetate and later separated from the mixture by centrifugation. The mixture was then concentrated by heating at 100 °C and dispersed in 3 mL of demineralized aqueous to have its absorbance measured by spectrophotometer at 228 nm. The hippuric acid concentration was utilized to calculate the percentage of inhibition (%), and the IC50 value was then calculated using the percentage inhibition obtained. […] An inhibition kinetics test was employed to determine the inhibition mechanism of these compounds. It was performed type of Inhibition was determined by the Lineweaver-Burk method to acquire the Michaelis-Menten kinetic constant. The Michaelis-Menten kinetic constant (Km) is assessed based on the regression equation y = a + bx, in which x is the substrate concentration [S], and y is the absorbance of the sample [18].
Additionally, most chemicals originating from plants positively affect other aspects of normal metabolism. […] The activity of ACE inhibition from medicines or plant extracts can be detected using various ACE inhibitory activity assay methods. Using a substrate of hippuryl-histidyl-leucine (HHL), we used the Cushman and Cheung approach to the data from this study. The ACE will hydrolyze HHL into hippuric acid (HA). A UV-visible spectrophotometer was used to measure the HA at a wavelength of 228 nm to describe the ACE activity. […] Most ACE inhibitory plant metabolites are peptides, protein hydrolysates, phenolics, flavonoids, terpenoids, and alkaloids.

In assay [2] the test system is leukemia l1210 cell line. Further details: method as in doi:10.22146/ijc.21576. The following applies: isolated from the bark of Mahkota Dewa; cited from earlier work.
Assay [3] concerns the target T1, angiotensin-converting enzyme (ACE). The assay can be described thus: Enzyme inhibition kinetics of ACE (Lineweaver-Burk plot). The format is biochemical. The following applies: for type of inhibition kinetics: Lineweaver-Burk, HHL substrate 4, 6, 8, 10 and 12 μg/ml. On the procedure:
This assay was conducted on extract, fraction and three purified compounds using captopril as a positive control at the concentration of 0,01, 0,05, 0,5, 1,25 dan 6,25 mM. In a test tube, 50 μL of the solution assay was added with 50 μL of 8 mM hippuryl-histidyl-leucine (HHL) substrate solution and pre-incubated at 37 °C for 10 minutes, followed by the addition of 100 μL of the ACE, homogenization by vortex mixer, and incubation for 90 minutes at 37 °C. Further, 250 μL of 1 N HCl was added to the mixture to stop the enzymatic reaction. The hippuric acid was produced, while the enzymatic reaction was extracted by 1.5 mL ethyl acetate and later separated from the mixture by centrifugation. The mixture was then concentrated by heating at 100 °C and dispersed in 3 mL of demineralized aqueous to have its absorbance measured by spectrophotometer at 228 nm. The hippuric acid concentration was utilized to calculate the percentage of inhibition (%), and the IC50 value was then calculated using the percentage inhibition obtained. The IC50 value was determined as the peptide concentration in mg/mL was demanded to reduce 50% of ACE activity by regression analysis of the ACE inhibition versus ACE concentration percentage. The examination of the kinetics of enzyme inhibition was carried out at several concentrations of HHL substrates, which are 4, 6, 8, 10, and 12 μg/ml. The samples administered were compound with the lowest IC50 value. An inhibition kinetics test was employed to determine the inhibition mechanism of these compounds. It was performed type of Inhibition was determined by the Lineweaver-Burk method to acquire the Michaelis-Menten kinetic constant. The Michaelis-Menten kinetic constant (Km) is assessed based on the regression equation y = a + bx, in which x is the substrate concentration [S], and y is the absorbance of the sample [18].
Kinetic analysis of ACE inhibition was conducted by administering the Lineweaver-Burk plot (Fig. 4). […] The Lineweaver-Burk graph is generated from relationship of 1/[S] to 1/V.
The active compound with the smallest IC50 value was examined for enzyme inhibition kinetics. […] However, the Km values are different based on the calculation results of the Michaelis-Menten constant. […] Competitive inhibitors compete with the substrate for the enzyme’s active site so that the enzyme cannot produce an enzyme-substrate complex. However, when the concentration of the competitive inhibitor is greater than that of the substrate, it binds to the active binding site to form an enzyme inhibitor complex (EI), which ultimately prevents the formation of any product. In a typical enzymatic reaction, Vmax is the reaction’s maximal rate. Km, also known as the Michaelis-Menten constant, is the substrate concentration halfway between Vmax and Km. […]

T1 sequence (P12821 30-1306, species assumed): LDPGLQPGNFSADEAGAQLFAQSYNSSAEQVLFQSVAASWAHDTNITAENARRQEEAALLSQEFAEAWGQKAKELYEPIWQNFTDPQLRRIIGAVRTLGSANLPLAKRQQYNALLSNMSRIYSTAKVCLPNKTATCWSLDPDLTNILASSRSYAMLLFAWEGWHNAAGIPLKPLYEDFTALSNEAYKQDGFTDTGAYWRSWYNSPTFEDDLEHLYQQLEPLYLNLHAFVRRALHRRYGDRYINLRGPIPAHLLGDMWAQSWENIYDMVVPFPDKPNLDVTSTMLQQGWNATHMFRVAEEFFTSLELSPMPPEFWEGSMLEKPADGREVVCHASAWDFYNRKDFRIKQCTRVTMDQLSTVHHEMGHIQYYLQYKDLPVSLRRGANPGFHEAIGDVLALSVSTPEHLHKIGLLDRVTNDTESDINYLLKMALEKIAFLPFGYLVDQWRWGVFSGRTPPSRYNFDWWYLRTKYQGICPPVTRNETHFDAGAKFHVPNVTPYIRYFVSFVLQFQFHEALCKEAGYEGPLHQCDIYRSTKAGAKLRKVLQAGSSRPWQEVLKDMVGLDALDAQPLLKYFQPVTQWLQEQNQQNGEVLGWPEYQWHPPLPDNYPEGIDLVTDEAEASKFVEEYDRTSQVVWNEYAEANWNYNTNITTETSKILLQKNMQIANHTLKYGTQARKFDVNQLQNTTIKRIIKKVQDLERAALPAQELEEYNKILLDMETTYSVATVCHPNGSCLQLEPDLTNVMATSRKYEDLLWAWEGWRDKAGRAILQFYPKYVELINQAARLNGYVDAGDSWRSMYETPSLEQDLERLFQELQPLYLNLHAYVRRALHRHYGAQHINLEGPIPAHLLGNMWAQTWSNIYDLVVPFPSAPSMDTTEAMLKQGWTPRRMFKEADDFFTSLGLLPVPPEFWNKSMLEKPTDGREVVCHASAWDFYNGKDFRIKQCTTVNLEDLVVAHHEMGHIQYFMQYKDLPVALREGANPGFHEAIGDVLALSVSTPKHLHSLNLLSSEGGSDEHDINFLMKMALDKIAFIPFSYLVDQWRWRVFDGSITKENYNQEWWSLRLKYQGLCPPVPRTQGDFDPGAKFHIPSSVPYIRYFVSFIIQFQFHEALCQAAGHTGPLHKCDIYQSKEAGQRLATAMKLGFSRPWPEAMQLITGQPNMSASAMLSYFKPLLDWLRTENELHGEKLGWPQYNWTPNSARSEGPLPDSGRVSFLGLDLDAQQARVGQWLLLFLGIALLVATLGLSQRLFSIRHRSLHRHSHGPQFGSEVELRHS

`COc1cc(O)c(C(=O)c2ccc(O)cc2)c(OC2OC(CO)C(O)C(O)C2O)c1` [Compound 1, 6,4′-dihydroxy-4-methoxybenzophenone-2-O-β-D-glucopyranoside]: in assay [1], the inhibition at 1.25 µg/mL is 77.48 ± 0.5% and the IC50 was 0.13 µM.
`COc1cc(O)c(C(=O)c2ccc(O)cc2)c(OC2OC(CO)C(O)C(O)C2O)c1` [6,4′-dihydroxy-6-methoxybenzophenone-2-O-β-D-glucopyranoside]: the IC50 in assay [2] was 5.1 µg/mL (≈ 12.1 µM).
Consider `COc1cc(O)cc(OC2OC(CO)C(O)C(O)C2O)c1C(=O)c1ccc(O)cc1` [Compound 2, 4,4′-dihydroxy-6-methoxybenzophenone-2-O-β-D-glucopyranoside], for which, in assay [1], the inhibition at 1.25 µg/mL worked out at 85.17 ± 0.23% and the IC50 was 0.166 µM.
On to `O=c1c2cc(O)c(O)cc2oc2cc(O)c([C@@H]3O[C@H](CO)[C@@H](O)[C@H](O)[C@H]3O)c(O)c12` [Compound 3, mangiferin], for which, in assay [1], the inhibition at 1.25 µg/mL amounted to 86.99 ± 0.02% and the IC50 was 0.0592 µM. Moreover, the “Vmax, isolate versus without inhibitor” value in assay [3] (Lineweaver-Burk plot, Fig. 4) is “almost the same”. In assay [3] (listed as compound 3), the “type of inhibition kinetics” value is reported as “competitively inhibiting”. Besides, the “type of inhibition kinetics” value in assay [3] (listed as mangiferin) is listed as “competitive inhibition”. Further, in assay [3] (Michaelis-Menten constant, Fig. 4), the “Km, isolate versus without inhibitor” value is given as “different”.

(Values after paper PMC9940430, “Angiotensin converting enzyme (ACE) inhibitors activity from purified compounds Fructus Phaleria macrocarpa (Scheff) Boerl” (BMC Complementary Medicine and Therapies, 2023).)
